ChEMBL document CHEMBL3352686, “Development of synthetic lethality anticancer therapeutics” (J Med Chem, 2014)
Values belong to the compound of their own block, whether it stands above or below them.

Legend:
[1] = biological target: Serine/threonine-protein kinase mTOR (Homo sapiens, UniProt P42345); test: Inhibition of mTOR (unknown origin)
[2] = biological target: Serine/threonine-protein kinase ATR (Homo sapiens, UniProt Q13535); test: Inhibition of ATR (unknown origin)
[3] = biological target: DNA-dependent protein kinase catalytic subunit (Homo sapiens, UniProt P78527); test: Inhibition of DNAPK (unknown origin)
Chain of DNA-dependent protein kinase catalytic subunit (P78527 whole entry): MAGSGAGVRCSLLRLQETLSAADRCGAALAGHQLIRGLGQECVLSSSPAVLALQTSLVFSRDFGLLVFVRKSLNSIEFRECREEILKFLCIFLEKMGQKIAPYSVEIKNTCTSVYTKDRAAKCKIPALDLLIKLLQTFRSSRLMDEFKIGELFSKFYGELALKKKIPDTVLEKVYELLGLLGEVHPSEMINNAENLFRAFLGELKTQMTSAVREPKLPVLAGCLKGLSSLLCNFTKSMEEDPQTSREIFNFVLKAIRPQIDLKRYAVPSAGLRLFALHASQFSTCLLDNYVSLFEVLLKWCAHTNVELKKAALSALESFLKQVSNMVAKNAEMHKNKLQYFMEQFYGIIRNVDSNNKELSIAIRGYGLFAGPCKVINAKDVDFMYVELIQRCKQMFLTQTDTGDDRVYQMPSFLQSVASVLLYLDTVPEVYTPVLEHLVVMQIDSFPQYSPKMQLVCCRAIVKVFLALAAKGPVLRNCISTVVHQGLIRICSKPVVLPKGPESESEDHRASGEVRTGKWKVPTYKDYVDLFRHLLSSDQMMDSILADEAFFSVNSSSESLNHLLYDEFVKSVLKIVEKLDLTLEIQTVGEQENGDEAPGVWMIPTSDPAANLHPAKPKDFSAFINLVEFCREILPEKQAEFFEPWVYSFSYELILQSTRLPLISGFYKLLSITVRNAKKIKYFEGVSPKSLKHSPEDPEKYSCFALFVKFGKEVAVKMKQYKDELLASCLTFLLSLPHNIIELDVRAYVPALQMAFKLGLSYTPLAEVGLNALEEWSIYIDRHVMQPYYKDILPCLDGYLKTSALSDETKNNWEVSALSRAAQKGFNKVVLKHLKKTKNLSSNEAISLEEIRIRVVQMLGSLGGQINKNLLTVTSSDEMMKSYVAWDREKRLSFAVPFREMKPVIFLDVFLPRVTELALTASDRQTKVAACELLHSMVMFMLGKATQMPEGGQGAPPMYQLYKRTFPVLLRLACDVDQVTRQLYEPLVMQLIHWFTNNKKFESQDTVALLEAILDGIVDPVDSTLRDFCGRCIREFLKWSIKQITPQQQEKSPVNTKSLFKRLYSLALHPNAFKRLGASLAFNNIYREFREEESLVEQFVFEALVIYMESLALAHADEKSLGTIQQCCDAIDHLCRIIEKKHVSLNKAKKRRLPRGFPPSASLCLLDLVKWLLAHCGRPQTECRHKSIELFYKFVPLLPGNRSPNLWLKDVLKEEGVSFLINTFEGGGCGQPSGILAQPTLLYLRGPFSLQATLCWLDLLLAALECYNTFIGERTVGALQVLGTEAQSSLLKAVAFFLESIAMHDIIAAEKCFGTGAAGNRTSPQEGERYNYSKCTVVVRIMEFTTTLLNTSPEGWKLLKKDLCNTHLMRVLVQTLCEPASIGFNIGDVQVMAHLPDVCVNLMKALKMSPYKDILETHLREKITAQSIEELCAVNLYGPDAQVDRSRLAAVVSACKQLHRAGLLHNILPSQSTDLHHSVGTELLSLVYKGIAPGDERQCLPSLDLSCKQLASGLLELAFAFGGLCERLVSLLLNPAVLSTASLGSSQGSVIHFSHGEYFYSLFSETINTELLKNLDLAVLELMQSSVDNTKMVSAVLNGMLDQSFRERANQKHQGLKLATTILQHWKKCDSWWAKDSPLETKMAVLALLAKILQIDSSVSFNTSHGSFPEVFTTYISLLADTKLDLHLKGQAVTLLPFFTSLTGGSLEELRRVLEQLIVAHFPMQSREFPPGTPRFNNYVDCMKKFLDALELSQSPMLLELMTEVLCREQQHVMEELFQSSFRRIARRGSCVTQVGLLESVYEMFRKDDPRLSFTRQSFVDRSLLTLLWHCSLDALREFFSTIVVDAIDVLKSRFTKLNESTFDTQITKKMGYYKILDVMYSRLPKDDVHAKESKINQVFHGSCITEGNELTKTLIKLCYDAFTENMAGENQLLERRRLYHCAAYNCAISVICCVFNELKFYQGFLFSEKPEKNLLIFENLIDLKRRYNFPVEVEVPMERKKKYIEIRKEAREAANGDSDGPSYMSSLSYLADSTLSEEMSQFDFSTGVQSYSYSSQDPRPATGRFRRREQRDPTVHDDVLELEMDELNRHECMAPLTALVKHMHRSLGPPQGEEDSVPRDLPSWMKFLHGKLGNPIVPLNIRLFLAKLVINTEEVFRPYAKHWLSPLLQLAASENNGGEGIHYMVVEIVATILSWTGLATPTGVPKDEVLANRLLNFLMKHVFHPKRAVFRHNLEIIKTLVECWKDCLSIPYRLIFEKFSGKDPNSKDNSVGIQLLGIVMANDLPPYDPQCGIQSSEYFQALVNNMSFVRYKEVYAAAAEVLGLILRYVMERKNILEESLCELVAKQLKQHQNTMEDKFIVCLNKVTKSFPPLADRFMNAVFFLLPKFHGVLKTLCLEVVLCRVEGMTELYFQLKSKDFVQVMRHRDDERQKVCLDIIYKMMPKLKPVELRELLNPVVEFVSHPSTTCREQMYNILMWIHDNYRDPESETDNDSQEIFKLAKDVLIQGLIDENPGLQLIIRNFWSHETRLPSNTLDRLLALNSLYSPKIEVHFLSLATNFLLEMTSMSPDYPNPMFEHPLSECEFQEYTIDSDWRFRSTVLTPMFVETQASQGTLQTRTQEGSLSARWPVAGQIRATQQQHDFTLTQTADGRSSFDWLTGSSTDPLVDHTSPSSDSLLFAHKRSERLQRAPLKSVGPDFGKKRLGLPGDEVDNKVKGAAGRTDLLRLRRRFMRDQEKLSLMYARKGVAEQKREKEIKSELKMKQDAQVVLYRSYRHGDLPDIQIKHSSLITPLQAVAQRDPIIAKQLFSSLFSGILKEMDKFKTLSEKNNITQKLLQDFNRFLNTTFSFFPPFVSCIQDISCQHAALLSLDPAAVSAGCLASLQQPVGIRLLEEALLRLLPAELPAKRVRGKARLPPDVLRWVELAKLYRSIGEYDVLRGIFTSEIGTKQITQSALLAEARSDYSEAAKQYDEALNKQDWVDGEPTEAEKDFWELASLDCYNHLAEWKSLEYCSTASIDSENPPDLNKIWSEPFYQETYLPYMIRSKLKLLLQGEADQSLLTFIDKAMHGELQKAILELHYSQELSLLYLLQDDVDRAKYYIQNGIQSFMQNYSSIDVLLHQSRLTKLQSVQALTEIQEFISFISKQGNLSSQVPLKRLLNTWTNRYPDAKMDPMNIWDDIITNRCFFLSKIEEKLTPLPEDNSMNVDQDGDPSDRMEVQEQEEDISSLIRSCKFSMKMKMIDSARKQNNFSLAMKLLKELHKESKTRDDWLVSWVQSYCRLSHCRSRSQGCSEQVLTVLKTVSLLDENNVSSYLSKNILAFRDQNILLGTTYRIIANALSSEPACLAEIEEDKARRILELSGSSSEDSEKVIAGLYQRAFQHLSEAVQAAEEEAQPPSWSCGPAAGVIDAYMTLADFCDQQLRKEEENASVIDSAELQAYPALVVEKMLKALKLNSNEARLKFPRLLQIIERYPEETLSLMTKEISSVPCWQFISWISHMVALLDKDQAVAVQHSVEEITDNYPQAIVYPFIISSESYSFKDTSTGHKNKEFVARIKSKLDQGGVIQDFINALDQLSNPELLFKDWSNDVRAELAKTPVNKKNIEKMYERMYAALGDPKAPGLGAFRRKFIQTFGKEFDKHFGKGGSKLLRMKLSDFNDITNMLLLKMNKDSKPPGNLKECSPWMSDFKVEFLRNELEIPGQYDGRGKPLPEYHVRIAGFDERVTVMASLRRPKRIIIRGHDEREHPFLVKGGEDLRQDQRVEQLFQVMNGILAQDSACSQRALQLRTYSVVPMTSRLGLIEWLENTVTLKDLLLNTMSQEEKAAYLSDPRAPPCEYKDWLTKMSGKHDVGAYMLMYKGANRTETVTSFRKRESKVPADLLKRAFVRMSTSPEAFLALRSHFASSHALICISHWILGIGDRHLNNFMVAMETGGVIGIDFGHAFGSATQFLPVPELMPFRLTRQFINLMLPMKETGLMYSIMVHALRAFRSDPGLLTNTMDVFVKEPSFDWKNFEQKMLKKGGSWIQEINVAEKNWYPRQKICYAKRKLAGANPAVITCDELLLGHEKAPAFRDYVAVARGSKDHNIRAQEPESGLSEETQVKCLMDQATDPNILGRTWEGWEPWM

[4] = Inhibition of PI3K (unknown origin); design: species or system Homo sapiens
[5] = biological target: Serine-protein kinase ATM (Homo sapiens, UniProt Q13315); test: Inhibition of ATM (unknown origin)
Homo sapiens [6] = organism: Homo sapiens; test: Toxicity in patient with refractory acute leukemia; format: organism-based; settings: in vivo
[7] = Cmax in BRCA mutation carrying cancer patient with sporadic cancer; settings: human, in vivo
[8] = Terminal half life in BRCA mutation carrying cancer patient with sporadic cancer; settings: human, in vivo
Homo sapiens [9] = test: Toxicity in advanced breast cancer patient with BRCA1/2 mutations assessed as maximum tolerated dose for twice daily dosing; format: organism-based; settings: in vivo
[10] = Cmax in advanced breast cancer patient with BRCA1/2 mutations at 400 mg dosed twice daily; format: ADME, organism-based; design: dose 400 mg; settings: human, in vivo
Homo sapiens [11] = test: In vivo inhibition of PARP activity in peripheral blood mononuclear cells of advanced breast cancer patient with BRCA1/2 mutations at 400 mg dosed twice daily; format: functional
Homo sapiens [12] = test: In vivo inhibition of PARP activity in tumor tissue of advanced breast cancer patient with BRCA1/2 mutations at 400 mg dosed twice daily; format: functional
[13] = Terminal half life in advanced breast cancer patient with BRCA1/2 mutations at 400 mg dosed twice daily; format: ADME, organism-based; settings: human, in vivo, read-out: beta t1/2 (converted)
Homo sapiens [14] = organism: Homo sapiens; test: Toxicity in patient with solid tumor co-treated with 500 mg/m2 pemetrexed; format: organism-based; settings: in vivo
Homo sapiens [15] = test: In vivo inhibition of PARP activity in peripheral blood mononuclear cells of advanced solid tumor patient at 12 mg/m2 co-treated with rucaparib and temzolomide; format: functional
[16] = Half life in refractory solid tumor and lymphoma patient; settings: human, in vivo
Homo sapiens [17] = test: Toxicity in refractory solid tumor and lymphoma patient at 10 mg dosed twice daily on days 1 to 5 in 21-day cycles co-treated with 50 mg cyclophosphamide once daily administered on days 1 to 5; format: organism-based; settings: in vivo
Homo sapiens [18] = test: Toxicity in refractory solid tumor and lymphoma patient at 10 mg dosed twice daily on days 1 to 5 in 21-day cycles co-treated with 0.6 mg/m2/day, iv topotecan administered on days 1 to 5; format: organism-based; settings: in vivo
Homo sapiens [19] = test: In vivo inhibition of PARP activity in peripheral blood mononuclear cells of refractory solid tumor and lymphoma patient at 10 mg dosed twice daily on days 1 to 5 in 21-day cycles co-treated with 50 mg cyclophosphamide once daily administered on days 1 to 5; format: functional
Homo sapiens [20] = test: In vivo inhibition of PARP activity in tumor tissue of refractory solid tumor and lymphoma patient at 10 mg dosed twice daily on days 1 to 5 in 21-day cycles co-treated with 50 mg cyclophosphamide once daily administered on days 1 to 5; format: functional

IC50 [1]: 0.6 nM
IC50 [2]: 14 nM
IC50 [3]: > 36 nM
IC50 [4]: > 36 nM
IC50 [5]: > 36 nM
Structure (SMILES): CC(C)(C#N)c1ccc(N2C(=O)OCc3cnc4ccc(-c5cnc6ccccc6c5)cc4c32)cc1

Structure (SMILES): Cn1cc(C2C=NN3C(N)=C(Br)C([C@@H]4CCCNC4)=NC23)cn1 (stereo not given in full)
MTD (Homo sapiens [6]): 56 mg/m2

Cmax [7]: 2000 nM
half-life [8]: 36.4 h
Structure (SMILES): NC(=O)c1cccc2cn(-c3ccc([C@@H]4CCCNC4)cc3)nc12 [NIRAPARIB]

Structure (SMILES): O=C(c1cc(Cc2n[nH]c(=O)c3ccccc23)ccc1F)N1CCN(C(=O)C2CC2)CC1 [OLAPARIB]
MTD (Homo sapiens [9]): 400 mg
Cmax [10]: 2600 ng/mL
inhibition (INH) (Homo sapiens [11]): 50%
inhibition (INH) (Homo sapiens [12]): 70%
half-life [13]: 7 h

Structure (SMILES): Cc1cnc(NC(=O)Nc2cc(Br)c(C)cc2OC[C@@H]2CNCCO2)cn1 [RABUSERTIB]
MTD (Homo sapiens [14]): 150 mg/m2

Structure (SMILES): CNCc1ccc(-c2[nH]c3cc(F)cc4c3c2CCNC4=O)cc1 [RUCAPARIB]
inhibition in vivo at 12 mg/m2 (Homo sapiens [15]): 74%

Structure (SMILES): C[C@]1(c2nc3c(C(N)=O)cccc3[nH]2)CCCN1 [VELIPARIB]
half-life [16]: 5 h
MTD (Homo sapiens [17]): 60 mg
MTD (Homo sapiens [18]): 60 mg
inhibition (INH) (Homo sapiens [19]): 50%
inhibition (INH) (Homo sapiens [20]): 80%
